Measurements: PubChem BioAssay (NCI)
Values joined by “and” are separate entries in the source; they are usually repeats but may differ in a detail not shown here. Equal entries are not always repeated.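 All cell lines were grown in 96-well plates and treated with compound for 48 hours. TGI denotes the concentration required for complete inhibition of growth.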

How the values were obtained:
Assay in all cases: inhibition of tumour cell growth, NCI panel, 48 h
[1] = tested on: MDA-MB-435
[2] = tested on: HCC-2998 colon
[3] = tested on: NCI/ADR-RES ovarian
[4] = tested on: SF-268 CNS
[5] = tested on: COLO 205 colon
[6] = tested on: LOX IMVI melanoma
[7] = tested on: HCT-116 colon
[8] = tested on: BT-549 breast
[9] = tested on: MOLT-4 leukemia
[10] = tested on: PC-3 prostate
[11] = tested on: MDA-MB-231 breast
[12] = tested on: MCF7 breast
[13] = tested on: UACC-62 melanoma
[14] = tested on: IGROV1 ovarian
[15] = tested on: MDA-N
[16] = tested on: A549 NSCLC
[17] = tested on: HCT-15 colon
[18] = tested on: OVCAR-3 ovarian
[19] = tested on: CCRF-CEM leukemia
[20] = tested on: NCI-H460 lung
[21] = tested on: SN12C renal
[22] = tested on: HOP-62 NSCLC
[23] = tested on: UO-31 renal
[24] = tested on: UACC-257 melanoma
[25] = tested on: MALME-3M melanoma
[26] = tested on: HS 578T breast
[27] = tested on: RXF 393 renal
[28] = tested on: RPMI-8226 leukemia
[29] = tested on: HT29 colon
[30] = tested on: SR leukemia
[31] = tested on: EKVX NSCLC
[32] = tested on: NCI-H226 lung
[33] = tested on: NCI-H522 lung
[34] = tested on: SNB-75 CNS
[35] = tested on: HOP-92 NSCLC
[36] = tested on: OVCAR-5 ovarian
[37] = tested on: SK-MEL-28 melanoma
[38] = tested on: CAKI-1 renal
[39] = tested on: 786-0 renal
[40] = tested on: SK-MEL-2 melanoma
[41] = tested on: SK-OV-3 ovarian
[42] = tested on: SNB-19 CNS
[43] = tested on: HL-60(TB) leukemia
[44] = tested on: T-47D breast
[45] = tested on: U251 CNS
[46] = tested on: M14 melanoma
[47] = tested on: OVCAR-4 ovarian
[48] = tested on: NCI-H23 lung
[49] = tested on: A498 renal
[50] = tested on: ACHN renal
[51] = tested on: SK-MEL-5 melanoma
[52] = tested on: SW-620 colon
[53] = tested on: OVCAR-8 ovarian
[54] = tested on: K-562 leukemia
[55] = tested on: KM12 colon
[56] = tested on: TK-10 renal
[57] = tested on: SF-295 CNS
[58] = tested on: DU-145 prostate
[59] = tested on: SF-539 CNS
[60] = tested on: LXFL 529 NSCLC
[61] = tested on: KM20L2 colon
[62] = tested on: DMS 273 small cell lung
[63] = tested on: HOP-18 NSCLC
[64] = tested on: DLD-1 colon
[65] = tested on: XF 498 CNS
[66] = tested on: SNB-78 CNS
[67] = tested on: DMS 114 small cell lung
[68] = tested on: M19-MEL melanoma

Measured: TGI

OC(CC1CCCCN1)c1ccc2c(c1)oc1ccccc12 (stereo not given)
44.7 µM: [13]
64.7 µM: [49]
45.2 µM: [5]
67.1 µM: [9]
45 µM: [46]
34.1 µM: [51]
not listed: [60] | [61] | [62] | [63] | [64] | [65] | [66] | [67] | [68]
> 100 µM: all other assays above

O=c1oc(-c2ccccc2)cn1-c1ccccc1
> 100 µM: [2] | [60] | [6] | [7] | [61] | [9] | [62] | [63] | [19] | [20] | [21] | [22] | [64] | [27] | [28] | [32] | [65] | [33] | [34] | [37] | [39] | [66] | [42] | [43] | [45] | [46] | [48] | [54] | [59]

CC1(c2cccc(C3CC4(CCC3=O)OCCCCO4)c2)OCCO1 (stereo not given)
not listed: [1] | [3] | [8] | [10] | [11] | [12] | [15] | [26] | [27] | [30] | [31] | [35] | [44] | [58] | [65]
> 100 µM: all other assays above

Oc1ccc2ccccc2c1N=Nc1cccc2ccccc12
> 100 µM and 80.4 µM: [34]
> 100 µM and 77.7 µM: [26]
76.3 µM: [59]
not listed: [60] | [61] | [62] | [63] | [64] | [65] | [66] | [67] | [68]
> 100 µM: all other assays above
